Key:
[1] = set-up: species or system human; conditions: in vivo
Experimental: (§1) A multicenter, open-label, non-randomized Phase 2 trial was conducted, wherein enrolled were patients with relapsed myeloma that was refractory to therapy. Patients were treated with 1.3 mg of bortezomib per square meter of body surface area, twice weekly for two weeks, followed by one week without treatment, for up to eight cycles (24 weeks).
(§2) Statistical analysis focused on the need to estimate response rates within specified limits of accuracy in order to determine if either of the two dose levels 1.0 or 1.3 mg/m^2/dose alone or in combination with dexamethasone are sufficiently efficacious to warrant further clinical study. This study was noncomparative in nature; therefore efficacy comparisons between the two doses of bortezomib were not performed. In addition, this study provided safety data that helped to characterize the potential toxicity of treatment at the two evaluated dose levels for up to eight cycles of therapy.
Over 80% of the 78 patients completed 2 or more cycles of treatment, 62% completed 4 or more cycles, and 27% completed 8 cycles.

[2] = system: OVCAR-3 and RPMI8226 resistant sub-clones; assay: Bortezomib resistant tumor cell lines generated by repeated dosing: resistance to bortezomib; assay type: cell-based; conditions: sub-clones selected after dosing with 3-5 times the LD50; vs parental lines
Experimental: In order to better understand the specific mechanism(s) by which proteasome inhibitors exert their apoptotic effects, as well as to elucidate mechanisms by which those effects may be subverted, bortezomib resistant tumor cell lines were generated. […] The drug was then removed and surviving cells were allowed to recover for 24 to 72 hours. This process was then repeated for multiple rounds with the bortezomib dose doubled each time. After cells had been dosed with 3-5 times the LD50, several individual cell lines were sub-cloned from single cell colonies. […] This strategy was applied to both ovarian tumor cell lines (OVCAR-3) and myeloma tumor cell lines (RPMI8226) and multiple sub-clones were characterized. The resistant cell lines were then subject to gene expression profiling using the Affymetrix U133 microarray. A comparison of genes differentially expressed in sensitive parental (S) versus resistant sub-clones (R) highlighted several genes that were also identified in analysis of sensitive and resistant myeloma biopsies. The number identified in Table 8 corresponds to the marker number identification in Table 1. Such results not only highlight a potential relationship between expression of these genes and bortezomib sensitivity, but also support the validity of methods used to define response genes in clinical samples.

[3] = system: human tumor xenograft models; conditions: cited from earlier work
[4] = system: relapsed/refractory multiple myeloma; assay: Open-label Phase II study of bortezomib in relapsed, refractory myeloma: IRC confirmed response (Blade criteria); assay type: in vivo, human
Experimental: An Open-Label Phase II Study of Bortezomib in Patients with Myeloma Who Have Relapsed Following Front-Line Therapy and are Refractory to their Most Recent Therapy
as §1, §2
A formal statistical analysis plan was developed and finalized prior to database lock. The primary efficacy analyses were performed on the intent-to-treat (ITT) population. The primary efficacy analysis were performed on the rates of responders, where a responder was defined as a CR, PR, or MR using the criteria prospectively established in Table C. Two-sided 90% confidence limits on proportions of responders in each dose group were established, corresponding to a 95% one-sided lower limit.
Based on the criteria reported by Kraut et al., J. Clin. Oncol. 16(2): 589-592 (1998) and Blade et al., Br. J. Haematol. 102(5): 1115-1123 (1998). In patients with CR, bone marrow was analyzed using PCR for verification of CR at the molecular level.
The Independent Review Committee (IRC) evaluation of confirmed response to treatment with bortezomib alone is provided in Table D; further categorization of response for those patients who experienced partial remission is provided in Table E. This independent panel panel of three medical oncologists reviewed all data for 193 evaluable patients in the trial and assigned response using Blade criteria (Table C). […] An additional 46 (24%) of patients had evidence for stable disease (NC, no change) in response to bortezomib alone, which reflects an improvement in status for these patients who were progressing at the time of study entry. Based on the IRC assessment, 38 (20%) of the 193 patients had progressive disease and an additional 42 patients (22%) were considered not evaluable for response by the IRC. […] See Richardson PG, et al., New Eng. J. Med.; 348: 2609-17 (2003).

[5] = IRC assessment, bortezomib alone, N = 193
[6] = IRC confirmed, bortezomib alone, N = 193

For `CC(C)C[C@H](NC(=O)[C@H](Cc1ccccc1)NC(=O)c1cnccn1)B(O)O` [bortezomib, N-pyrazinecarbonyl-L-phenylalanine-L-leucineboronic acid], the “tolerability of the dose” value [1] is listed as “well tolerated”, the “resistance to bortezomib of resistant sub-clones” value [2] is listed as 5-10 fold and the antitumor activity [3] is listed as “demonstrated antitumor activity”. For the same molecule, the “CR+PR rate” value ([4]; 202 patients enrolled, PS-341 alone, prior to added dexamethasone) was 27%, the “overall response rate to PS-341 alone” value ([4]; 202 patients enrolled, prior to any patients receiving added dexamethasone) was 35% and the “Not Evaluable for response, number of patients” value [4, 5] was 42 patients. For the same molecule, the “Not Evaluable for response, percent of patients” value [4, 5] was 22%, the “Complete + Partial + Minor Responses, number of patients” value ([4]; IRC confirmed, bortezomib alone, 1.3 mg/m2 twice weekly, N = 193) was 67 patients and the “Complete + Near Complete Remissions (NCR), number of patients” value [4, 6] was 19 patients. For the same molecule, the “Complete + Near Complete Remissions (NCR), percent of patients” value [4, 6] was 10%, the “Complete + Partial + Minor Responses, percent of patients” value [4, 6] was 35% and the “Complete + Partial Remissions, number of patients” value [4, 6] was 53 patients. For the same molecule, the “Complete + Partial Remissions, percent of patients” value [4, 6] was 27%, the “Complete Remission (CR), number of patients” value [4, 6] was 19 patients and the “Complete Remission (CR), percent of patients” value [4, 6] was 4%. For the same molecule, the “Minor Response (MR), number of patients” value [4, 6] was 14 patients, the “Minor Response (MR), percent of patients” value [4, 6] was 5% and the “No Change (stable disease), number of patients” value [4, 6] was 46 patients. The “No Change (stable disease), percent of patients” value [4, 6] was 27%, the “Partial Remission (PR), number of patients” value [4, 6] was 34 patients and the “Partial Remission (PR), percent of patients” value [4, 6] was 23%. For the same molecule, the “Progressive Disease, number of patients” value [4, 6] was 38 patients and the “Progressive Disease, percent of patients” value [4, 6] was 20%.
